Results taken from ChEMBL document CHEMBL4371005, “Overview of the Development of DprE1 Inhibitors for Combating the Menace of Tuberculosis” (J Med Chem, 2018).
Converted amounts (≈) assume the structure as drawn.

Key:
[1] = biological target: T1, Decaprenylphosphoryl-beta-D-ribose oxidase (Mycobacterium tuberculosis (strain ATCC 25618 / H37Rv), UniProt P9WJF1); experiment: Inhibition of N-terminal His6-thioredoxin tagged Mycobacterium tuberculosis H37Rv DprE1 expressed in Escherichia coli BL21(DE3) using FPR as substrate by resazurin dye-based fluorescence assay
T1 sequence (P9WJF1 whole entry): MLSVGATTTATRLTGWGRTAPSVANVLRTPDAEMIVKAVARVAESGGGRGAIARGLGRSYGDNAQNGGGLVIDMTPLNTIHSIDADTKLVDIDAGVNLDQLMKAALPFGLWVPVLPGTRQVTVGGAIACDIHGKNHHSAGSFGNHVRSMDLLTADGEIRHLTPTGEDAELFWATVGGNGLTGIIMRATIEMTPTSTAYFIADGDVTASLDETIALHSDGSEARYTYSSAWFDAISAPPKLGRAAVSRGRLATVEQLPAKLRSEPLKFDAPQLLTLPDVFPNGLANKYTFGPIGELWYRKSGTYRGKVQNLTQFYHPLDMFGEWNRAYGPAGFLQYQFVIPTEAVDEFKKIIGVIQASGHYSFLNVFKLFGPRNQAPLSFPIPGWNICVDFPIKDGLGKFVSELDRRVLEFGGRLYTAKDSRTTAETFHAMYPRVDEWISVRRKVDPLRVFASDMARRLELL

Cytochrome P450 2C9 = Cytochrome P450 2C9 (Homo sapiens, UniProt P11712); experiment: Inhibition of CYP2C9 in human liver microsomes using diclofenac as substrate after 30 mins by in presence of NADPH by LC-MS/MS analysis; type: ADME
[2] = Inhibition of Mycobacterium tuberculosis DprE1 using FPR as substrate by resazurin dye-based fluorescence assay
[3] = Binding affinity to Mycobacterium tuberculosis DprE1
[4] = test system: Mycobacterium tuberculosis; experiment: Antimycobacterial activity against GFP-fused Mycobacterium tuberculosis H37Rv after 7 days by fluorescence assay; type: functional; conditions: 168 h
[5] = biological target: T2, Decaprenylphosphoryl-beta-D-ribose oxidase (Mycobacterium tuberculosis (strain ATCC 25618 / H37Rv)) (UniProt P9WJF1); experiment: Inhibition of GFP-fused Mycobacterium tuberculosis H37Rv DprE1 after 72 hrs by fluorescence assay
T2 sequence (whole entry): T1 sequence (P9WJF1 whole entry)

[6] = test system: Mycobacterium tuberculosis; experiment: Antimycobacterial activity against Mycobacterium tuberculosis after 5 days by turbidity assay; type: functional; conditions: 120 h
[7] = test system: Mycobacterium tuberculosis; experiment: Antimycobacterial activity against GFP-fused Mycobacterium tuberculosis H37Rv by resazurin dye-based micro-broth dilution method; type: functional
[8] = test system: Mycobacterium tuberculosis; experiment: Antimycobacterial activity against Mycobacterium tuberculosis H37Rv after overnight incubation by REMA method; type: functional
[9] = test system: Mycobacterium tuberculosis; experiment: Antimycobacterial activity against Mycobacterium tuberculosis in 7H9 medium; type: functional, organism-based
[10] = test system: Mycobacterium tuberculosis; experiment: Antimycobacterial activity against Mycobacterium tuberculosis in biofilm medium; type: functional, organism-based
[11] = biological target: T1, Decaprenylphosphoryl-beta-D-ribose oxidase; experiment: Inhibition of Mycobacterium tuberculosis H37Rv DprE1 using FPR as substrate preincubated for 6.5 hrs followed by substrate addition by resazurin dye-based spectrofluorimetric analysis
[12] = biological target: T2, Decaprenylphosphoryl-beta-D-ribose oxidase (Mycobacterium tuberculosis (strain ATCC 25618 / H37Rv)); experiment: Ratio of IC50 for inhibition of Mycobacterium tuberculosis H37Rv DprE1 using FPR as substrate in presence of SAM by resazurin dye-based spectrofluorimetric analysis to IC50 for inhibition of Mycobacterium tuberculosis H37Rv DprE1 using FPR as substrate in absence of SAM by resazurin dye-based spectrofluorimetric analysis
[13] = biological target: T2, Decaprenylphosphoryl-beta-D-ribose oxidase (Mycobacterium tuberculosis (strain ATCC 25618 / H37Rv)); experiment: Inhibition of Mycobacterium tuberculosis H37Rv DprE1 at 50 uM relative to control
[14] = biological target: T1, Decaprenylphosphoryl-beta-D-ribose oxidase; experiment: Inhibition of Mycobacterium tuberculosis H37Rv DprE1
[15] = test system: Mycobacterium tuberculosis; experiment: Antimycobacterial activity against Mycobacterium tuberculosis H37Rv after 24 hrs by REMA method; type: functional
[16] = test system: Mycobacterium tuberculosis; experiment: Antimycobacterial activity against recombinant GFP-fused Mycobacterium tuberculosis H37Rv after 10 days by resazurin dye-based assay; type: functional; conditions: 240 h
[17] = test system: Mycobacterium tuberculosis; experiment: Bactericidal activity against recombinant GFP-fused Mycobacterium tuberculosis H37Rv by resazurin dye-based assay; type: functional
[18] = test system: Mycobacterium tuberculosis; experiment: Antimycobacterial activity against Mycobacterium tuberculosis H37Rv infected in C57BL/6 mouse primary macrophages assessed as reduction in colony forming unit at 5 uM after 2 hrs followed by compound wash out and measured after 7 days by serial dilution method relative to control; type: functional
[19] = test system: Mycobacterium tuberculosis; experiment: Antimycobacterial activity against Mycobacterium tuberculosis H37Rv infected in human primary macrophages assessed as reduction in colony forming unit at 5 uM after 2 hrs followed by compound wash out and measured after 7 days by serial dilution method relative to control; type: functional

Chain of Cytochrome P450 2C9 (P11712 whole entry): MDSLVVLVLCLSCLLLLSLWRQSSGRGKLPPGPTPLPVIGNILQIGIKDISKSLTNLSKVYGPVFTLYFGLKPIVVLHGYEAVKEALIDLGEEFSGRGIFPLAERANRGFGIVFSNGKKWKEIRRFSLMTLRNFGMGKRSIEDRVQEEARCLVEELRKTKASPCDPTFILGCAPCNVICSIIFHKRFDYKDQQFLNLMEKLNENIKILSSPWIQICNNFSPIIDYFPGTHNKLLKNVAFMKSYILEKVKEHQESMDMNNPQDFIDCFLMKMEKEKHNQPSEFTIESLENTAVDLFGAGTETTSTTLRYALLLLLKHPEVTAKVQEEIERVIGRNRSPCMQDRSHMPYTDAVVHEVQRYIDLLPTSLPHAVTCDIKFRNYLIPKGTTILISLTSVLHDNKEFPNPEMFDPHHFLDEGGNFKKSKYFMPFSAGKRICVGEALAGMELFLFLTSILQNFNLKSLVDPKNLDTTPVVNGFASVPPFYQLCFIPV

Cc1ccnc(NC(=O)c2ccsc2NC(=O)c2ccn3cnnc3c2)n1
IC50 [1]: 30 nM
IC50 (Cytochrome P450 2C9): > 50000 nM

O=C(C1CCN(c2nnc(-n3cccc3)s2)CC1)N1CCC(Cc2ccccc2)CC1
IC50 [2]: 54 nM
Kd [3]: 250 nM

Nc1cc(C(=O)NCCOCc2cccc(Cl)c2)cc([N+](=O)[O-])c1
MIC [4]: > 20 µM

O=C(NCCOCc1ccccc1)c1cc([N+](=O)[O-])cc([N+](=O)[O-])c1
MIC [4]: 0.2 µM (≈ 0.0691 µg/mL)

O=C(NCCOCc1cccc(Cl)c1)c1cccc([N+](=O)[O-])c1
MIC [4]: > 20 µM

CC(C)(C)c1ccc(Cn2cnc([N+](=O)[O-])n2)cc1
IC90 [5]: 500 nM

Cc1ccc(C(F)(F)F)cc1CNCc1cc2c(C3CC3)nn(-c3ccccc3)c2[nH]c1=O
MIC [6]: 0.1 µM (≈ 0.0452 µg/mL)

Cc1ccc(C(F)(F)F)cc1CNCc1cc2c(C)nn(-c3ccccc3)c2[nH]c1=O
MIC [6]: 0.8 µM (≈ 0.341 µg/mL)

CC[C@@H](CO)NCCN[C@@H](CC)CO [ETHAMBUTOL]
MIC [7]: 1000 to 5000 µg/mL (≈ 4890 to 24500 µM)

Cc1nc2c([N+](=O)[O-])cc(C(F)(F)F)cc2nc1-c1ccccc1
MIC [8]: 6.25 µM (≈ 2.08 µg/mL)

O=C(NCCOCc1cccc(Cl)c1)c1cc(NO)cc([N+](=O)[O-])c1
MIC [4]: > 20 µM

CCOC(=O)NC(=O)c1ccsc1NC(=O)c1nc2ccccc2s1
IC50 [9]: 0.19 µg/mL (≈ 0.506 µM)
IC50 [10]: 0.01 µg/mL (≈ 0.0266 µM)

O=C(NCCOCc1cccc(Cl)c1)c1cc([N+](=O)[O-])cc([N+](=O)[O-])c1
MIC [4]: 1 µM (≈ 0.38 µg/mL)

C[C@H]1COC2(CCN(c3nc(=O)c4cc(C(F)(F)F)cc([N+](=O)[O-])c4s3)CC2)O1 [BTZ-043]
MIC [7]: 0.001 µg/mL (≈ 0.00232 µM)

Cc1nc2cc(Br)cc([N+](=O)[O-])c2nc1-c1ccccc1
MIC [8]: 3.1 µM (≈ 1.07 µg/mL)

Cc1c(CCC(=O)N2CCCC2)c(=O)n2c([nH]c3ccccc32)c1C#N
IC50 [11]: 70 nM
Ratio IC50 [12]: 36

CCOC(=O)c1nc2ccc(C(F)(F)F)cc2nc1NCc1ccc(OC)cc1
MIC99 [8]: 3.1 µM (≈ 1.26 µg/mL)
inhibition [13]: 54%

COC(=O)c1ccc(O[C@H]2CCN(C(=O)c3cc([N+](=O)[O-])cc([N+](=O)[O-])c3)C2)cc1
MIC [4]: > 20 µM

O=C(O)c1nc2ccc(C(F)(F)F)cc2nc1NCc1ccc(Cl)cc1
MIC99 [8]: 3.1 µM (≈ 1.18 µg/mL)
IC50 [14]: 50 nM

CCCCN1CCN(c2nc(=O)c3cc(C(F)(F)F)cc(-n4cccc4)c3s2)CC1
MIC [15]: 0.62 µg/mL (≈ 1.42 µM)

COc1ccc(CNc2nc3cc(C(F)(F)F)ccc3nc2C(=O)O)cc1F
MIC99 [8]: 6.3 to 12.5 µM (≈ 2.49 to 4.94 µg/mL)
IC50 [14]: 80 nM

CCOC(=O)NC(=O)c1ccsc1NC(=O)c1ccn2cnnc2c1
IC50 [1]: 60 nM

NNC(=O)c1ccncc1 [ISONIAZID]
MIC [7]: 20 to 200 µg/mL (≈ 146 to 1460 µM)

O=C(NCCOCc1cccc(C(F)(F)F)c1)c1cc([N+](=O)[O-])cc([N+](=O)[O-])c1
MIC [4]: 0.2 µM (≈ 0.0827 µg/mL)

Cc1ccc(C)n1-c1cc(C(F)(F)F)cc2c(=O)nc(N3CCC4(CC3)OC[C@H](C)O4)sc12
MIC [15]: 2.5 µg/mL (≈ 5.21 µM)

COc1ccc(O[C@H]2CCN(C(=O)c3cc([N+](=O)[O-])cc([N+](=O)[O-])c3)C2)cc1
MIC [4]: 20 µM (≈ 7.75 µg/mL)

O=C(O)c1nc2ccc(C(F)(F)F)cc2nc1NCc1ccc(C(F)(F)F)cc1
MIC99 [8]: 6.3 µM (≈ 2.62 µg/mL)
IC50 [14]: 120 nM

O=C(O)c1nc2ccc(C(F)(F)F)cc2nc1NCc1ccc(F)cc1
MIC99 [8]: 12.5 µM (≈ 4.57 µg/mL)
IC50 [14]: 72 nM

CCc1nc2cc(Cl)ccn2c1C(=O)NCc1ccc(N2CCN(c3ccc(F)cc3)CC2)cc1
IC50 [14]: > 10000 nM
MIC [16]: 0.017 µM
MBC [17]: > 200 µM

COc1ccc(CNc2nc3cc(C(F)(F)F)ccc3nc2C(=O)O)cc1
MIC99 [8]: 3.1 µM (≈ 1.17 µg/mL)
IC50 [14]: 41 nM

O=c1nc(N2CCN(CC3CCCCC3)CC2)sc2c(-n3cccc3)cc(C(F)(F)F)cc12
MIC [15]: 0.16 µg/mL (≈ 0.336 µM)

C[C@H]1COC2(CCN(c3nc(=O)c4cc(C(F)(F)F)cc(-n5cccc5)c4s3)CC2)O1
MIC [15]: 0.16 µg/mL (≈ 0.354 µM)

Cc1ccc(C(F)(F)F)cc1CNCc1cc2c(C(C)C)nn(-c3ccccc3)c2[nH]c1=O
MIC [6]: 0.4 µM (≈ 0.182 µg/mL)

CCOc1ccc(CNc2nc3cc(C(F)(F)F)ccc3nc2C(=O)O)cc1
MIC99 [8]: 3.1 µM (≈ 1.21 µg/mL)
IC50 [14]: 88 nM

COc1ccc(O[C@H]2CCCN(C(=O)c3cc([N+](=O)[O-])cc([N+](=O)[O-])c3)C2)cc1
MIC [4]: 20 µM (≈ 8.03 µg/mL)

O=C(NCCOc1ccccc1F)c1cc([N+](=O)[O-])cc([N+](=O)[O-])c1
MIC [4]: 0.7 µM (≈ 0.244 µg/mL)

COc1ccc(OCCNC(=O)c2cc([N+](=O)[O-])cc([N+](=O)[O-])c2)cc1
MIC [4]: 0.2 µM (≈ 0.0723 µg/mL)
fold change (FC) [18]: 10
fold change (FC) [19]: 10

O=C(NCCOCc1ccccc1F)c1cc([N+](=O)[O-])cc([N+](=O)[O-])c1
MIC [4]: 0.08 µM (≈ 0.0291 µg/mL)

N#Cc1ccc(CNc2nc3cc(C(F)(F)F)ccc3nc2C(=O)O)cc1
MIC99 [8]: 50 µM (≈ 18.6 µg/mL)
IC50 [14]: 67 nM

Cc1nc2cc(C(F)(F)F)cc([N+](=O)[O-])c2nc1-c1ccccc1
MIC [8]: 0.75 µM (≈ 0.25 µg/mL)
